Data on one molecule can be found in PMC2694132 (Cancer research, 2009).

“Also recorded” adds a separate entry of the source.

Type in all cases: in vitro ADME
In one series the target is T1, UGT2B17 (Homo sapiens, UniProt O75795).
T1 sequence (O75795 24-530): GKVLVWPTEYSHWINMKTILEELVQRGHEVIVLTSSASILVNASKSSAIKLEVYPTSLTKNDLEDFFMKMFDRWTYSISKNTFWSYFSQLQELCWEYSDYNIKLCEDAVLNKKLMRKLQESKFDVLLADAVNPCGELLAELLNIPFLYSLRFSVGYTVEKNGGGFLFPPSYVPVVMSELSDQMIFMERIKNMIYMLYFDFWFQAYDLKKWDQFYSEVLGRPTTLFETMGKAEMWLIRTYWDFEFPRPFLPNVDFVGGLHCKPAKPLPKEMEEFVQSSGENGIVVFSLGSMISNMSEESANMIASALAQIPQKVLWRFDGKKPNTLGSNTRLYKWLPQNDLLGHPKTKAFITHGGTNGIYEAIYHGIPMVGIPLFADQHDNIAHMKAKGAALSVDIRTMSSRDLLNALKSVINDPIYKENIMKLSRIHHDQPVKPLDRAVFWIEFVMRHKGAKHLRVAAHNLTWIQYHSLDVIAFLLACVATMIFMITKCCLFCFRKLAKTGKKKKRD
In words: SAHA glucuronidation, UGT2B17-overexpressing HEK293 cell homogenate.

The target in another series is T2, UGT1A9 (Homo sapiens, UniProt O60656).
T2 sequence (O60656 26-530): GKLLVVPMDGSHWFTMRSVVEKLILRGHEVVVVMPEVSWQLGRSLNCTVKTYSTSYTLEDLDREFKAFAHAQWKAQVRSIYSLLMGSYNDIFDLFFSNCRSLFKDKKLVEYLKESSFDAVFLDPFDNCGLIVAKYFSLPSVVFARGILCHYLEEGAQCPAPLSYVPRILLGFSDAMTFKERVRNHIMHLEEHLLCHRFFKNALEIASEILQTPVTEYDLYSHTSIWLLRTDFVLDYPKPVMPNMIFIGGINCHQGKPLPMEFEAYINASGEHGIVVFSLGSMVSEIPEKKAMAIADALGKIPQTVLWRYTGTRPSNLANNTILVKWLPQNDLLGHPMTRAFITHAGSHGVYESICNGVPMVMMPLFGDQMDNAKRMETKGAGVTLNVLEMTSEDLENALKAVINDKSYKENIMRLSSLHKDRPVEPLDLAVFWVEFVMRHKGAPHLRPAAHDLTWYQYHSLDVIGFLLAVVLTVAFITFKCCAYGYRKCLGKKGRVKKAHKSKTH
In words: SAHA glucuronidation, UGT1A9-overexpressing HEK293 cell homogenate.

In series [1] the target is T3, UGT1A7*4 (UGT1A7p.Trp208Arg) (Homo sapiens, UniProt Q9HAW7, W208R).
T3 sequence (Q9HAW7 26-530 W208R): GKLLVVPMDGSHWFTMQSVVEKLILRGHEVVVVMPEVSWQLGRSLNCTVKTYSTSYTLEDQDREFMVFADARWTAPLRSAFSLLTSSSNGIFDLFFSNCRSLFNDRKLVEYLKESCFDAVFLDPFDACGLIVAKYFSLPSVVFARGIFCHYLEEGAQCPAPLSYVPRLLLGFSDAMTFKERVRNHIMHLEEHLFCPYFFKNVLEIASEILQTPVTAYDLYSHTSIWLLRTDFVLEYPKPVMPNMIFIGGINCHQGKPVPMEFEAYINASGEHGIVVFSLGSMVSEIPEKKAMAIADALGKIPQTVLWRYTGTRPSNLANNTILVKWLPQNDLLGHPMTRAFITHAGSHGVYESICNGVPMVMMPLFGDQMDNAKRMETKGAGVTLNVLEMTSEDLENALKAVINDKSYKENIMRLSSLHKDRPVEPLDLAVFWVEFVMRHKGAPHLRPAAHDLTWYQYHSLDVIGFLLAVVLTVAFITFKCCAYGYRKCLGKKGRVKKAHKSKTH
In words: SAHA glucuronidation, UGT1A7*4 variant cell homogenate.

The target of another series is T4, UGT1A3 (Homo sapiens, UniProt P35503).
T4 sequence (P35503 29-534): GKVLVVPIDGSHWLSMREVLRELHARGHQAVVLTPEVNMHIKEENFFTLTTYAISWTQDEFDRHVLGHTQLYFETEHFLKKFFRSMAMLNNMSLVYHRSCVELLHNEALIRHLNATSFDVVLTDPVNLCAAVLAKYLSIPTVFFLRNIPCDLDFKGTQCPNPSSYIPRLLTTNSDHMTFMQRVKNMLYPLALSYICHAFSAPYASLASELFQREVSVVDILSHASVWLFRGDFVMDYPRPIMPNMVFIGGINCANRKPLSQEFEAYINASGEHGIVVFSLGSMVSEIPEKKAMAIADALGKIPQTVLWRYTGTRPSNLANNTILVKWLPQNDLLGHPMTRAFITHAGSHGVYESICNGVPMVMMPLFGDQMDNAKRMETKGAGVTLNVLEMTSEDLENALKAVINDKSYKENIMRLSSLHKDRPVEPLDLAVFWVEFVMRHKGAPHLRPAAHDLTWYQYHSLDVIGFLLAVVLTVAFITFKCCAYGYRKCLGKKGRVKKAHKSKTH
In words: SAHA glucuronidation, UGT1A3-overexpressing HEK293 cell homogenate.

Series [2] deals with T5, UGT1A8*3 (UGT1A8p.Cys277Tyr) (Homo sapiens, UniProt Q9HAW9, C277Y).
T5 sequence (Q9HAW9 26-530 C277Y): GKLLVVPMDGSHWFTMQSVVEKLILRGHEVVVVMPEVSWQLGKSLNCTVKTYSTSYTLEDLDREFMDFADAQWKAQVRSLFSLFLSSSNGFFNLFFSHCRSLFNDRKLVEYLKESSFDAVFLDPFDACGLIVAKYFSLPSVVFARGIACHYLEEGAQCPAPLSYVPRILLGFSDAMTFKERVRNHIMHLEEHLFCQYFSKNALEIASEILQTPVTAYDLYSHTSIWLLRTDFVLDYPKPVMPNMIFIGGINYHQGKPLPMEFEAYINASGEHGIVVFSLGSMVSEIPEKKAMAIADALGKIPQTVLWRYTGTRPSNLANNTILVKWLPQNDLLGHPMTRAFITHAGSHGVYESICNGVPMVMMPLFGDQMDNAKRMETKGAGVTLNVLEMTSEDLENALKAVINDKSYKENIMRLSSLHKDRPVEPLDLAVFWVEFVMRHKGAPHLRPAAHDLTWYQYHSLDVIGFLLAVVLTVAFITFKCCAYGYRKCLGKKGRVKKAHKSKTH
Put plainly: Glucuronidation, UGT1A8*3 variant cell homogenate. Particulars: using up to 8 mmol/L SAHA.

Setting [3] is: 400 μg UGT-overexpressing cell homogenate, 1-h incubation.

For orientation: Km means the substrate concentration at which the rate is half of its maximum. Turning to `O=C(CCCCCCC(=O)Nc1ccccc1)NO` [SAHA, Suberoylanilide hydroxamic acid], the “glucuronidation against SAHA (screen)” value on UGT2B17 (setting [3]), on UGT1A9 (setting [3]) and at UGT1A3 (setting [3]) was “high levels of glucuronidation” in each case. On UGT2B17 (against SAHA), the “apparent KM of UGT2B17 lower than that of UGT1A3” value is 11 fold. Moreover, the “apparent KM of UGT2B17 lower than that of UGT1A9” value on UGT2B17 (against SAHA) came to 5 fold. At UGT2B17 (against SAHA), the “higher level of glucuronidation activity (Vmax/KM) of UGT2B17 compared with UGT1A3” value was 9.4 fold. Moreover, the “higher level of glucuronidation activity (Vmax/KM) of UGT2B17 compared with UGT1A9” value on UGT2B17 (against SAHA) is 2.3 fold. In addition, the Km at 1 h on UGT2B17 (human, UGT2B17-overexpressing HEK293 cell homogenate, pH 7.5) came out at 300 ± 100 µM; on UGT1A9 (human, UGT1A9-overexpressing HEK293 cell homogenate, pH 7.5) it was 1600 ± 500 µM; in series [1] (human, pH 7.5), 2200 ± 500 µM; on UGT1A3 (human, UGT1A3-overexpressing HEK293 cell homogenate, pH 7.5), 3400 ± 800 µM. Further, in series [1] (UGT1A7 variants), the “difference in glucuronidation activity against SAHA versus wild-type UGT1A7” value is “No significant difference”. Further, the “glucuronidation activity against SAHA” value in series [2] is “no detectable glucuronidation activity; also recorded: inactive”.
